According to patent US4168206A, “Impregnated disk method for testing antifungal susceptibility” (Philadelphia College of Osteopathic Medicine, priority 1977, dated 1979):
≈ marks a conversion by molar mass, not a printed value.

Assays:
Assay type in all cases: cell-based
[1] = tested on: Cryptococcus neoformans; experiment: MIC by impregnated disk method, Cryptococcus neoformans; conditions: Cryptococcus neoformans
Experimental: (§1) Stock solutions of the antifungal agents to be tested are preferably prepared by diluting the antifungal agents in the proper nutrient medium. It is presently preferred to prepare dilutions in 10 ml of the proper medium to give the following final concentrations when applied to the disks (all quantities in micrograms per milliliter): 0.05, 0.08, 0.09, 0.1; 0.1 increment increases to 0.9, 1.0; 0.5 increment increases to 10.0; and 12.0, 14.0, 20.0, 25.0 and 50.0. Disks have been prepared by placing 0.05 ml of the above dilutions of antifungal agent containing medium on 6.5 mm diameter disks in 0.01 or 0.02 ml increments. The impregnated disks are then allowed to dry at a temperature preferably below about 10° C. […] The disks may also be dried by a lyophilization or freeze drying process.
(§2) To perform the tests in accordance with the present inventions, disks impregnated with various concentrations of antifungal agent and nutrient medium and a control disk impregnated only with the corresponding nutrient medium are placed on the fungus to be tested which has been applied to the non-nutrient medium. The disks are the inoculated non-nutrient medium are then incubated at a suitable temperature for a sufficient time to promote growth of the fungus. Any temperature is suitable if it will promote growth of the fungus without adversely affecting the fungus or the activity of the antifungal agent or agents tested. The time of incubation can be determined by observing the extent of growth around the control disk. […] The zones of growth or inhibition around the disks were read at 6, 12, 24, 36 and 48 hours after the disks were placed on the tested fungus.
(§3) The minimum inhibitory concentration is defined as the lowest concentration of antifungal agent which inhibits visible growth. The disks containing concentrations of antifungal agents below the minimum inhibitory concentration show circumscribed growth of the fungus around the disk. Disks containing concentrations of antifungal agent at or above the minimum inhibitory concentration show no circumscribed growth.
(§4) Clinical isolates of various fungi listed in Table 1 were obtained from different patients diagnosed as having fungal infections. The fungal inocula were prepared by using a 24-48 hour cultures grown in yeast nitrogen base containing 1% glucose and 0.15% asparagine. After centrifuging, the supernatant was removed, the sedimented cells were washed twice with sterile distilled water and a cell suspension was adjusted to 80% transmission at 520 nm using a Beckman DB-GT grating spectrophotometer.
(§5) Sterile liquified 2% purified agar was placed in petri dishes and allowed to harden. The surface of the agar was inoculated with a sterile cotton swab saturated with a suspension of an organism. The uniformly swabbed plates were then allowed to dry.
(§6) Disks were prepared using the dilutions described above for amphotericin B, nystatin and 5-fluorocytosine. 0.05 ml of the dilutions of each antifungal agent diluted with the appropriate nutrient medium were pipetted on 6.5 mm diameter disks. The disks were dried at 4° C. after each application. Control disks were also prepared.
(§7) Several test disks and a control disk were placed in each petri dish containing the inoculated agar. The disks and petri dishes were then incubated at 29° C. and the minimum inhibitory concentration of the various concentrations of the antifungal agents were read at 6, 12, 24, 36 and 48 hours.
(§8) In 10 duplicate runs with each strain tested, the variation in minimum inhibitory concentration averaged ±0.05 μg/ml.

[2] = tested on: Cryptococcus neoformans; experiment: MIC by broth dilution method, Cryptococcus neoformans; conditions: Cryptococcus neoformans
Excerpt: (§9) The preparation of the nutrient media, the antifungal agents and the fungi to be tested in the present invention are similar to those reported in S. Shadomy and A. Espinel-Ingroff, "Susceptibility Testing Of Antifungal Agents", Ch. 63, pp. 569-574 in E. H. Lennett, E. H. Spaulding, and J. P. Truant, Eds., Manual Of Clinical Microbiology, 2nd Ed., American Society for Microbiology, Washington, D.C. (1974). This publication describes the susceptibility testing of antifungal agents, namely, amphotericin B, nystatin and 5-fluoro-cytosine (5-FC), by the "broth dilution method" and the "semisolid agar dilution method". At pages 570-571, it is stated:
as §8
(§10) *Broth dilution method conducted in accordance with S. Shadomy and E.
(§11) Espinel-Ingroff, "Susceptibility Testing of Antifungal Agents", Ch. 63,
(§12) pp. 569-574 in E. H. Spaulding and J. P. Truant, Eds., Manual Of Clinical
(§13) Microbiology, 2nd Ed., American Society for Microbiology, Washington, […]

[3] = tested on: Geotrichum candidum; experiment: MIC by impregnated disk method, Geotrichum candidum; conditions: disk method, read-out: Minimum Inhibitory Concentration, Disk
Experimental: as §1, §2
(§14) The minimum inhibitory concentration is defined as the lowest concentration of antifungal agent which inhibits visible growth. […]
(§15) Several test disks and a control disk were placed in each petri dish containing the inoculated agar. The disks and petri dishes were then incubated at 29° C. and the minimum inhibitory concentration of the various concentrations of the antifungal agents were read at 6, 12, 24, 36 and 48 hours. […]

[4] = tested on: Trichosporon sp.; experiment: MIC by broth dilution method, Trichosporon sp.; conditions: Trichosporon sp.; broth dilution method; read-out: Minimum Inhibitory Concentration, Broth
Excerpt: as §9, §8, §10, §11, §12, §13

[5] = tested on: C. tropicalis; experiment: MIC by broth dilution method, Candida tropicalis; conditions: Candida tropicalis; C. tropicalis; broth dilution method; read-out: Minimum Inhibitory Concentration, Broth
Excerpt: as §9, §8, §10, §11, §12, §13

[6] = tested on: Candida albicans; experiment: MIC by impregnated disk method, Candida albicans; conditions: Candida albicans
Experimental: as §1, §2, §3, §4, §5, §6, §7, §8

[7] = tested on: Torulopsis glabrata; experiment: MIC by impregnated disk method, Torulopsis glabrata; conditions: Nakaseomyces glabratus; Torulopsis glabrata; disk method; read-out: Minimum Inhibitory Concentration, Disk
Experimental: as §1, §2, §14, §15

[8] = tested on: C. parapsilosis; experiment: MIC by impregnated disk method, Candida parapsilosis; conditions: Lodderomyces parapsilosis
Experimental: as §1, §2, §3, §4, §5, §6, §7, §8

[9] = tested on: Saccharomyces cerevisiae; experiment: MIC by impregnated disk method, Saccharomyces cerevisiae; conditions: Saccharomyces cerevisiae
Experimental: as §1, §2, §3, §4, §5, §6, §7, §8

[10] = tested on: Geotrichum candidum; experiment: MIC by broth dilution method, Geotrichum candidum; conditions: broth dilution method, read-out: Minimum Inhibitory Concentration, Broth
Excerpt: as §9, §8, §10, §11, §12, §13

[11] = tested on: Trichosporon sp.; experiment: MIC by impregnated disk method, Trichosporon sp.; conditions: Trichosporon sp.; disk method; read-out: Minimum Inhibitory Concentration, Disk
Experimental: as §1, §2, §14, §15

[12] = tested on: C. tropicalis; experiment: MIC by impregnated disk method, Candida tropicalis; conditions: Candida tropicalis; C. tropicalis; disk method; read-out: Minimum Inhibitory Concentration, Disk
Experimental: as §1, §2, §14, §15

[13] = tested on: C. parapsilosis; experiment: MIC by broth dilution method, Candida parapsilosis; conditions: Lodderomyces parapsilosis
Excerpt: as §9, §8, §10, §11, §12, §13

[14] = tested on: Torulopsis glabrata; experiment: MIC by broth dilution method, Torulopsis glabrata; conditions: Nakaseomyces glabratus; Torulopsis glabrata; broth dilution method; read-out: Minimum Inhibitory Concentration, Broth
Excerpt: as §9, §8, §10, §11, §12, §13

[15] = tested on: Saccharomyces cerevisiae; experiment: MIC by broth dilution method, Saccharomyces cerevisiae; conditions: Saccharomyces cerevisiae
Excerpt: as §9, §8, §10, §11, §12, §13

[16] = tested on: Candida albicans; experiment: MIC by broth dilution method, Candida albicans; conditions: Candida albicans
Excerpt: as §9, §8, §10, §11, §12, §13

MIC ([1]; C. neoformans isolate 2, read-out: Minimum Inhibitory Concentration, Disk): 15 µg/mL (≈ 116 µM) | MIC ([1]; Cryptococcus neoformans isolate 1, read-out: Minimum Inhibitory Concentration, Disk): 10 µg/mL (≈ 77.5 µM) | MIC ([2]; C. neoformans isolate 2, read-out: Minimum Inhibitory Concentration, Broth): 12 µg/mL (≈ 93 µM) | MIC ([2]; Cryptococcus neoformans isolate 1, read-out: Minimum Inhibitory Concentration, Broth): 8.5 µg/mL (≈ 65.8 µM) | MIC [3]: 2.5 µg/mL (≈ 19.4 µM) | MIC [4]: 50 µg/mL (≈ 387 µM) | MIC [5]: 6 µg/mL (≈ 46.5 µM) | MIC ([6]; isolate 1, read-out: Minimum Inhibitory Concentration, Disk): 8.5 µg/mL (≈ 65.8 µM) | MIC ([6]; isolate 2, read-out: Minimum Inhibitory Concentration, Disk): 0.3 µg/mL (≈ 2.32 µM) | MIC ([6]; isolate 3, read-out: Minimum Inhibitory Concentration, Disk): 2 µg/mL (≈ 15.5 µM) | MIC ([6]; isolate 4, read-out: Minimum Inhibitory Concentration, Disk): 6 µg/mL (≈ 46.5 µM) | MIC ([6]; isolate 5, read-out: Minimum Inhibitory Concentration, Disk): 0.8 µg/mL (≈ 6.2 µM) | MIC ([6]; isolate 6, read-out: Minimum Inhibitory Concentration, Disk): 0.5 µg/mL (≈ 3.87 µM) | MIC [7]: 0.8 µg/mL (≈ 6.2 µM) | MIC ([8]; C. parapsilosis isolate 1, read-out: Minimum Inhibitory Concentration, Disk): 0.9 µg/mL (≈ 6.97 µM) | MIC ([8]; C. parapsilosis isolate 2, read-out: Minimum Inhibitory Concentration, Disk): 1.5 µg/mL (≈ 11.6 µM) | MIC ([9]; S. cerevisiae isolate 2, read-out: Minimum Inhibitory Concentration, Disk): 0.8 µg/mL (≈ 6.2 µM) | MIC ([9]; Saccharomyces cerevisiae isolate 1, read-out: Minimum Inhibitory Concentration, Disk): 1.5 µg/mL (≈ 11.6 µM) | MIC [10]: 3 µg/mL (≈ 23.2 µM) | MIC [11]: 50 µg/mL (≈ 387 µM) | MIC [12]: 7.5 µg/mL (≈ 58.1 µM) | MIC ([13]; C. parapsilosis isolate 1, read-out: Minimum Inhibitory Concentration, Broth): 0.8 µg/mL (≈ 6.2 µM) | MIC ([13]; C. parapsilosis isolate 2, read-out: Minimum Inhibitory Concentration, Broth): 2 µg/mL (≈ 15.5 µM) | MIC [14]: 0.7 µg/mL (≈ 5.42 µM) | MIC ([15]; S. cerevisiae isolate 2, read-out: Minimum Inhibitory Concentration, Broth): 1 µg/mL (≈ 7.75 µM) | MIC ([15]; Saccharomyces cerevisiae isolate 1, read-out: Minimum Inhibitory Concentration, Broth): 2.5 µg/mL (≈ 19.4 µM) | MIC ([16]; isolate 1, read-out: Minimum Inhibitory Concentration, Broth): 6.5 µg/mL (≈ 50.4 µM) | MIC ([16]; isolate 2, read-out: Minimum Inhibitory Concentration, Broth): 0.6 µg/mL (≈ 4.65 µM) | MIC ([16]; isolate 3, read-out: Minimum Inhibitory Concentration, Broth): 3 µg/mL (≈ 23.2 µM) | MIC ([16]; isolate 4, read-out: Minimum Inhibitory Concentration, Broth): 3.5 µg/mL (≈ 27.1 µM) | MIC ([16]; isolate 5, read-out: Minimum Inhibitory Concentration, Broth): 0.7 µg/mL (≈ 5.42 µM) | MIC ([16]; isolate 6, read-out: Minimum Inhibitory Concentration, Broth): 0.7 µg/mL (≈ 5.42 µM)
Structure (SMILES): Nc1nc(=O)[nH]cc1F [5-Fluorocytosine, 5-fluorocytosine]
